This note sets out measurements from ChEMBL document CHEMBL4483862, “Open-source discovery of chemical leads for next-generation chemoprotective antimalarials” (2018).

The test system of the assay is Plasmodium berghei. In words: Luciferase/luciferin-expressing antifolate-resistant parasites were used to infect a culture of HepG2 cells that were pre-incubated with compounds. Infected hepatocytes emit light due to the luciferase reaction. Assay results are presented as the percent inhibition of light emission compared to control. […]. It counts as functional. Conditions: sporozoite; for IC90: read-out: LUCIFERASE INFECTION ASSAY - IC90.

Where [1] appears, read: read-out: LUCIFERASE INFECTION ASSAY - IC50.

As to `CC(C)CN1C(=O)N(Cc2ccccc2)C2(CCN(C3Cc4ccccc4C3)CC2)C1=O`, the IC90 was above 7.65 µM. Further, the IC50 (PBLUC_HILL_SLOPE 12.6, PBLUC_R_SQUARED 0.313, read-out: LUCIFERASE INFECTION ASSAY - IC50) was 7.2 µM.
Turning to `Cc1cccn2cc(CN3CCC(c4nc5ccccc5s4)CC3)nc12`, the 90% effect concentration (IC90) amounted to 3.59 µM. Besides, the IC50 (PBLUC_HILL_SLOPE 8.96, 1.52, PBLUC_R_SQUARED 0.442, 0.954, read-out: LUCIFERASE INFECTION ASSAY - IC50) stood at 2.59 µM.
Consider `O=C(NC1CCCc2ccccc21)c1ccc2c(c1)S(=O)(=O)c1ccccc1C2=O` (centres undefined), for which the IC90 is above 10 µM. The concentration for half-maximal inhibition (IC50) (HEPG2TOX_HILL_SLOPE 1, HEPG2TOX_R_SQUARED 0.0756, read-out: LUCIFERASE INFECTION ASSAY - IC50) was above 10 µM.
Turning to `COc1ccc(NC(=O)c2cc(N(C)Cc3ccccc3)ncn2)cn1`, the 90% effect concentration (IC90) was 7.26 µM. For the same compound, the IC50 (HEPG2TOX_HILL_SLOPE 2.56, HEPG2TOX_R_SQUARED 0.944, PBLUC_HILL_SLOPE 1.8, PBLUC_R_SQUARED 0.498, read-out: LUCIFERASE INFECTION ASSAY - IC50) was found to be 2.14 µM.
As to `COC(=O)c1ccc(C(=O)OC)c(N(C)S(C)(=O)=O)c1`, the IC90 was above 11 µM. Further, under setting [1], the 50% inhibitory concentration (IC50) was above 11 µM.
With `O=C(NCCC1=CCCCC1)c1ccccc1CN1C(=O)CNC1=O`, the IC90 was above 10 µM. Also, under setting [1], the half-maximal inhibitory concentration (IC50) is above 10 µM.
Turning to `Cc1nn(-c2ccccc2)c2sc(C(=O)N3c4ccccc4CC3C)cc12` (centres undefined), the concentration for an effect of 90% (IC90) was above 10 µM. Moreover, under setting [1], the IC50 is above 10 µM.
`Cn1c(N)c(C(=O)c2cccc(S(=O)(=O)N3CCc4ccccc43)c2)c(=O)[nH]c1=O`: the IC90 is above 10 µM. For the same compound, where the note is “PBLUC_HILL_SLOPE 10, PBLUC_R_SQUARED 0.0166, read-out: LUCIFERASE INFECTION ASSAY - IC50”, the half-maximal inhibitory concentration (IC50) is above 10 µM.
Turning to `Fc1cccc(-c2nc3ccnc(Nc4ccccc4)c3[nH]2)c1`, the IC90 is above 10 µM. For the same compound, the IC50 (HEPG2TOX_HILL_SLOPE 0.405, HEPG2TOX_R_SQUARED 0.516, PBLUC_HILL_SLOPE 2.81, PBLUC_R_SQUARED 0.545, read-out: LUCIFERASE INFECTION ASSAY - IC50) was determined as 5.99 µM.
Regarding `Cc1ccc(S(=O)(=O)Nc2cccc3ncccc23)s1`, the 90% effect concentration (IC90) came to 3.72 µM. Where the note is “HEPG2TOX_HILL_SLOPE 1.87, HEPG2TOX_R_SQUARED 0.954, PBLUC_HILL_SLOPE 8.9, PBLUC_R_SQUARED 0.583, read-out: LUCIFERASE INFECTION ASSAY - IC50”, the IC50 worked out at 2.91 µM.
For the compound `N#C/C(=N\Nc1ccccc1Cl)S(=O)(=O)c1ccc(Cl)cc1`, the concentration for an effect of 90% (IC90) came to 4.8 µM. Moreover, the IC50 (HEPG2TOX_HILL_SLOPE 2.02, HEPG2TOX_R_SQUARED 0.971, PBLUC_HILL_SLOPE 7.31, PBLUC_R_SQUARED 0.396, read-out: LUCIFERASE INFECTION ASSAY - IC50) came out at 3.55 µM.
`Cc1ccc2c(CSc3nc(N)c(C#N)cc3C#N)cc(=O)oc2c1C`: the 90% effect concentration (IC90) came out at 2.94 µM. Besides, the half-inhibitory concentration (IC50) (FFLUC_HILL_SLOPE 4.09, FFLUC_R_SQUARED 0.386, HEPG2TOX_HILL_SLOPE 1.27, HEPG2TOX_R_SQUARED 0.917, PBLUC_HILL_SLOPE 1.89, PBLUC_R_SQUARED 0.826, read-out: LUCIFERASE INFECTION ASSAY - IC50) came out at 0.918 µM.
`C=CCNC(=S)N1CCc2sccc2C1c1ccc(Cl)cc1` (centres undefined): the IC90 was above 9.46 µM. Besides, the IC50 (PBLUC_HILL_SLOPE 2.11, PBLUC_R_SQUARED 0.465, read-out: LUCIFERASE INFECTION ASSAY - IC50) came to 4.12 µM.
Take `O=C(Nc1ncccc1O)c1ccc(S(=O)(=O)NCCc2cccs2)cc1`: the IC90 was found to be 0.176 µM. Moreover, the IC50 under setting [1] worked out at 0.134 µM.
Turning to `O=S(=O)(Nc1cc(C(F)(F)F)cc(C(F)(F)F)c1)c1cc(Cl)ccc1Cl`, the IC90 was above 7.53 µM. The half-maximal inhibitory concentration (IC50) (HEPG2TOX_HILL_SLOPE 2.59, HEPG2TOX_R_SQUARED 0.793, PBLUC_HILL_SLOPE 6.41, PBLUC_R_SQUARED 0.152, read-out: LUCIFERASE INFECTION ASSAY - IC50) was found to be 6.18 µM.
As to `O=C(c1cccs1)N1CCN(Cc2csc(C3CCCCC3)n2)CC1`, the 90% effect concentration (IC90) is above 10 µM. Moreover, the half-maximal inhibitory concentration (IC50) (HEPG2TOX_HILL_SLOPE 7.59, HEPG2TOX_R_SQUARED 0.857, PBLUC_HILL_SLOPE 2.36, PBLUC_R_SQUARED 0.0477, read-out: LUCIFERASE INFECTION ASSAY - IC50) was 5.47 µM.
Turning to `c1ccc(CN2CCc3nc(NCc4ccc(Oc5ccccc5)cc4)ncc3C2)cc1`, the IC90 is above 7.81 µM. Also, the IC50 under setting [1] was above 7.81 µM.
Take `COc1cc(Nc2nccc3nc(-c4ccc5c(c4)OCCO5)[nH]c23)cc(OC)c1OC`: the 90% effect concentration (IC90) came to 1.67 µM. Moreover, under setting [1], the IC50 amounted to 0.494 µM.
In the same order, the values of `O=C(Nc1cccc(Cl)c1)N1CCN(C(=O)c2ccoc2)CC1` are above 10 µM and above 10 µM.
`C=CCNC(=O)NCC(=O)Nc1ccc(OC)c(Cl)c1`: the IC90 was above 10 µM. Further, the IC50 under setting [1] is above 10 µM.
Consider `CNC(=O)CN(C)Cc1c(O)c(C(=O)NCc2ccccc2)cc2ccccc12`, for which the IC90 is above 10 µM. Also, the IC50 (PBLUC_HILL_SLOPE 3.62, PBLUC_R_SQUARED 0.233, read-out: LUCIFERASE INFECTION ASSAY - IC50) was 8.75 µM.
Consider `CC(Sc1nnc(/C=C/c2ccc(F)cc2)[nH]1)C(=O)NC(C)(C)C` (centres undefined), for which the IC90 stood at 5.34 µM. Also, the 50% inhibitory concentration (IC50) under setting [1] amounted to 2.09 µM.
In the same order, the values of `CN1CCN(c2ccc(CNS(=O)(=O)c3cccs3)cn2)CC1` are above 2 µM and above 2 µM.
Take `Cc1ccc(CN(C)C(=O)C2CCN(c3ncnc4sc(C)c(C)c34)CC2)o1`: the IC90 was above 10 µM. Further, the concentration for half-maximal inhibition (IC50) (PBLUC_HILL_SLOPE 6.95, PBLUC_R_SQUARED 0.517, read-out: LUCIFERASE INFECTION ASSAY - IC50) came out at 8.99 µM.
On to `Cc1noc(C)c1C(=O)ONC(=N)c1ccc(OC(F)(F)F)cc1`, for which the IC90 is above 9.61 µM. In addition, under setting [1], the IC50 was above 9.61 µM.
Regarding `CCCNC(=O)c1c(NC(=O)c2ccc(F)cc2)nc2ccccn12`, the IC90 was 5.82 µM. The half-maximal inhibitory concentration (IC50) (HEPG2TOX_HILL_SLOPE 16.9, HEPG2TOX_R_SQUARED 0.391, PBLUC_HILL_SLOPE 4.88, PBLUC_R_SQUARED 0.525, read-out: LUCIFERASE INFECTION ASSAY - IC50) amounted to 3.71 µM.
Consider `Oc1cccc(-c2ccnc3n[nH]c(-c4ccc5c(c4)OCO5)c23)c1`, for which the IC90 was determined as 6.14 µM. In addition, the IC50 (HEPG2TOX_HILL_SLOPE 9.48, HEPG2TOX_R_SQUARED 0.645, PBLUC_HILL_SLOPE 1.2, PBLUC_R_SQUARED 0.596, read-out: LUCIFERASE INFECTION ASSAY - IC50) came out at 0.984 µM.
For the compound `O=C1CC(c2cccc3ccccc23)c2c([nH]c(-c3ccccc3)nc2=O)N1` (centres undefined), the IC90 is above 8.98 µM. In addition, the IC50 under setting [1] was above 8.98 µM.
As to `COC(=O)C1CC2CCCCC2N1C(=O)c1nn(C)c(=O)c2ccccc12` (centres undefined), the 90% effect concentration (IC90) is above 10 µM. Also, under setting [1], the IC50 was above 10 µM.
`Cc1ccc(-c2csc(Nc3ccccn3)n2)c(C)c1`: the concentration for an effect of 90% (IC90) is above 10 µM. Moreover, the IC50 (HEPG2TOX_HILL_SLOPE 8.07, HEPG2TOX_R_SQUARED 0.196, PBLUC_HILL_SLOPE 0.693, PBLUC_R_SQUARED 0.516, read-out: LUCIFERASE INFECTION ASSAY - IC50) was 0.441 µM.
Consider `Cc1ccc(-c2cs/c(=N\c3cccnc3)n2CCCn2ccnc2)cc1C`, for which the concentration for an effect of 90% (IC90) is above 10 µM. In addition, the IC50 (HEPG2TOX_HILL_SLOPE 0.267, HEPG2TOX_R_SQUARED 0.885, PBLUC_HILL_SLOPE 2.25, PBLUC_R_SQUARED 0.462, read-out: LUCIFERASE INFECTION ASSAY - IC50) was 5.5 µM.
Turning to `CC(Sc1nc2ccccc2c(=O)n1CCCN1CCOCC1)c1ccc(F)cc1` (centres undefined), the IC90 was above 10 µM. For the same compound, the half-maximal inhibitory concentration (IC50) under setting [1] is above 10 µM.
In the case of `COc1ccc(-c2nn(-c3ccccc3)cc2/C=C/C(=O)NCCc2cn3ccccc3n2)cc1OC`, the concentration for an effect of 90% (IC90) is above 10 µM. In addition, the IC50 (PBLUC_HILL_SLOPE 1.11, PBLUC_R_SQUARED 0.206, read-out: LUCIFERASE INFECTION ASSAY - IC50) is above 10 µM.
`COc1cc(C(=O)NNC(=O)c2nn(-c3ccccc3)cc2O)cc(OC)c1OC`: the concentration for an effect of 90% (IC90) is above 10 µM. Besides, the IC50 (HEPG2TOX_HILL_SLOPE 4.57, HEPG2TOX_R_SQUARED 0.844, PBLUC_HILL_SLOPE 7.94, PBLUC_R_SQUARED 0.6, read-out: LUCIFERASE INFECTION ASSAY - IC50) is 8.48 µM.
As to `O=c1c(Cl)c2[nH]c3ccccc3nc-2c2ccccc12`, the IC90 is above 11.8 µM. Also, the concentration for half-maximal inhibition (IC50) under setting [1] was above 11.8 µM.
On to `S=C(Nc1ccc(Oc2ccccc2)cc1)Nc1cccc2cnccc12`, for which the IC90 is above 10 µM. The IC50 (PBLUC_HILL_SLOPE 1.05, PBLUC_R_SQUARED 0.612, read-out: LUCIFERASE INFECTION ASSAY - IC50) came out at 4.86 µM.
Take `CNc1ccccc1C(=O)N/N=C/c1cc(Cl)cc(Cl)c1O`: the IC90 was above 9.76 µM. Further, where the note is “HEPG2TOX_HILL_SLOPE 2.97, HEPG2TOX_R_SQUARED 0.147, PBLUC_HILL_SLOPE 9.98, PBLUC_R_SQUARED 0.459, read-out: LUCIFERASE INFECTION ASSAY - IC50”, the IC50 is above 9.76 µM.
Take `CCS(=O)(=O)c1ccc(O)c(NC(=O)Cc2csc(-c3ccsc3)n2)c1`: the 90% effect concentration (IC90) is above 10 µM. Besides, under setting [1], the IC50 is above 10 µM.
For the compound `NC(=O)C1CN(S(=O)(=O)c2cc(Cl)sc2Cl)c2ccccc2O1` (centres undefined), the IC90 is above 10 µM. Besides, under setting [1], the concentration for half-maximal inhibition (IC50) is above 10 µM.
For `COc1ccc(-c2cnc3sc(NCc4ccncc4)nn23)cc1OC`, the concentration for an effect of 90% (IC90) was above 8.98 µM. In addition, the IC50 under setting [1] is above 8.98 µM.
`O=C(Nc1nc(-c2ccc[nH]2)cs1)c1cccc(Br)c1`: the IC90 was above 10 µM. For the same compound, the half-inhibitory concentration (IC50) (HEPG2TOX_HILL_SLOPE 0.199, HEPG2TOX_R_SQUARED 0.479, read-out: LUCIFERASE INFECTION ASSAY - IC50) was above 10 µM.
With `COc1ccc(OCc2nnc(SCC(=O)NCC3CCCO3)n2N)cc1` (centres undefined), the 90% effect concentration (IC90) was above 10 µM. Besides, under setting [1], the IC50 was above 10 µM.
